The values below come from patent US20180228826A1, “FIXED-DOSE COMBINATIONS OF ANTIVIRAL COMPOUNDS” (priority 2015, published 2018).

Read-outs that look alike come from different tables or passages of the source. Some results are limits rather than exact numbers.

Data set [1] is described as follows: solubility in simulated fasted-state intestinal fluid. The class given is physicochemical. Particulars: fassif. The method, then:
(§1) Even in its amorphous state, the apparent solubility of neat amorphous Compound […] in simulated fasted-state intestinal fluid is 50 μg/mL after two hours of equilibration. In order to enable absorption of Compound III, solid dispersion formulations of Compound III were formulated at a drug loading less than or equal to 40% in combination with absorption-enhancing polymers and surfactants as described in U.S. Provisional Patent Application No. 61/936,019, filed Feb. 5, 2014; PCT International Patent Application Nos. PCT/US2015/014195 and PCT/US2015/014201, filed Feb. 3, 2015.

Data set [2] can be described thus: human clinical trial, pharmacokinetics of Tablet Formulation 6 and Tablet Formulation 7, fasted and fed. Particulars: in vivo, GM; for AUC(0-t): read-out: AUC0-24 hr.
A short description of the next data set: log D of Compound III. In kind it is physicochemical. The following applies: pH=7. The method, then:
as §1

The mark [3] stands for this setting: administered as Tablet Formulation 6, single dose of two tablets, Fasted.
[4] abbreviates: administered as Tablet Formulation 6, single dose of two tablets, Fed (High-Fat Meal).
Setting [5] is: administered as Tablet Formulation 7, single dose of two tablets, Fasted.
Setting [6] is: administered as Tablet Formulation 7, single dose of two tablets, Fed (High-Fat Meal).
Where [7] appears, read: oral, administered as Tablet Formulation 6, single dose of two tablets, Fasted.
[8] abbreviates: oral, administered as Tablet Formulation 6, single dose of two tablets, Fed (High-Fat Meal).
[9] abbreviates: oral, administered as Tablet Formulation 7, single dose of two tablets, Fasted.
Where [10] appears, read: oral, administered as Tablet Formulation 7, single dose of two tablets, Fed (High-Fat Meal).

As usually defined, the solubility is how much of the substance goes into solution per volume. By AUC(0-inf) is commonly meant the area under the concentration-time curve extrapolated to infinity. As usually defined, the Cmax is the maximum level reached in the sampled fluid or tissue. Turning to `CC(C)OC(=O)[C@@H](C)NP(=O)(OC[C@H]1O[C@@H](n2ccc(=O)[nH]c2=O)[C@](C)(Cl)[C@@H]1O)Oc1ccccc1` (stereo partly drawn) [Compound I, (2R)-isopropyl 2-(((((2R,3R,4R,5R)-4-chloro-5-(2,4-dioxo-3,4-dihydropyrimidin-1(2H)-yl)-3-hydroxy-4-methyltetrahydrofuran-2-yl)methoxy)(phenoxy)phosphoryl)amino)propanoate], in data set [1] (thermodynamic from solid, after two hours of equilibration, read-out: apparent solubility of neat amorphous compound), the solubility at 2 h was 0.05 mg/mL. Further, the AUC(0-inf) in data set [2] (setting [3]) was determined as 2730 nM·h; in data set [2] (setting [4]), 3910 nM·h; in data set [2] (setting [5]), 3010 nM·h; in data set [2] (setting [6]) it was 4080 nM·h. Moreover, the Cmax in data set [2] (setting [3]) stood at 0.9 µM; in data set [2] (setting [4]), 1.42 µM; in data set [2] (setting [5]), 0.897 µM; in data set [2] (setting [6]), 1.74 µM. The AUC(0-t) in data set [2] (setting [3]) was 2630 nM·h; in data set [2] (setting [4]), 3850 nM·h; in data set [2] (setting [5]) it was 2910 nM·h; in data set [2] (setting [6]), 4360 nM·h.

With `COC(=O)N[C@H](C(=O)N1CCC[C@H]1c1ncc(-c2cc(F)c3c(c2)O[C@@H](c2cnc(C4CC4)s2)n2c-3cc3cc(-c4cnc([C@@H]5CCCN5C(=O)[C@@H](NC(=O)OC)C(C)C)[nH]4)ccc32)[nH]1)C(C)C` [Compound II, dimethyl ((2S,2′S)-((2S,2′S)-2,2′-(5,5′-((S)-6-(2-cyclopropylthiazol-5-yl)-1-fluoro-6H-benzo[5,6][1,3]oxazino[3,4-a]indole-3,10-diyl)bis(1H-imidazole-5,2-diyl))bis(pyrrolidine-2,1-diyl))bis(3-methyl-1-oxobutane-2,1-diyl))dicarbamate], the AUC(0-inf) amounted to 942 nM·h in data set [2] (setting [7]), 1110 nM·h in data set [2] (setting [8]), 1310 nM·h in data set [2] (setting [9]) and 1200 nM·h in data set [2] (setting [10]). Also, the maximum concentration (Cmax) in data set [2] (setting [7]) was found to be 0.057 µM; in data set [2] (setting [8]), 0.0681 µM; in data set [2] (setting [9]), 0.0772 µM; in data set [2] (setting [10]), 0.0787 µM. For the same molecule, the AUC(0-t) in data set [2] (setting [7]) was determined as 572 nM·h; in data set [2] (setting [8]), 658 nM·h; in data set [2] (setting [9]) it was 783 nM·h; in data set [2] (setting [10]) it was 716 nM·h.

What is called logD is the decadic logarithm of the distribution of all forms, ionised or not, between an organic phase and buffer at a given pH. As for `C=C[C@@H]1C[C@]1(NC(=O)[C@@H]1C[C@@H]2CN1C(=O)[C@H](C(C)(C)C)NC(=O)O[C@@H]1C[C@H]1CCCCCc1nc3ccc(OC)cc3nc1O2)C(=O)NS(=O)(=O)C1CC1` [Compound III, (1aR,5S,8S,10R,22aR)—N-[(1R,2S)-1-[(cyclopropylsulfonamido)carbonyl]-2-ethenylcyclopropyl]-14-methoxy-5-(2-methylpropan-2-yl)-3,6-dioxo-1,1a,3,4,5,6,9,10,18,19,20,21,22,22a-tetradecahydro-8H-7,10-methanocyclopropa[18,19][1,10,3,6]dioxadiazacyclononadecino[11,12-b]quinoxaline-8-carboxamide hydrate], in data set [1], the solubility was less than 0.007 mg/mL. Moreover, the log distribution coefficient (logD) in “log D of Compound III” is roughly 3. Besides, the area under the curve AUC(0-inf) was 508 nM·h in data set [2] (setting [7]), 628 nM·h in data set [2] (setting [8]), 598 nM·h in data set [2] (setting [9]) and 733 nM·h in data set [2] (setting [10]). Besides, the Cmax was 0.0256 µM in data set [2] (setting [7]), 0.0443 µM in data set [2] (setting [8]), 0.0312 µM in data set [2] (setting [9]) and 0.0612 µM in data set [2] (setting [10]). The AUC(0-t) in data set [2] (setting [7]) was 218 nM·h; in data set [2] (setting [8]) it was 330 nM·h; in data set [2] (setting [9]), 285 nM·h; in data set [2] (setting [10]), 380 nM·h.
